Blank lines part the entries; values can stand above or below the compound they belong to.
What was measured:
[1] = tested on: template 8aaa:primer + downstream-binding oligonucleotide (DNA, duplex, 3'-amino-2',3'-dideoxynucleoside at primer 3' end) CTGGATTTCCTCAGAAACGTGCG/CGCACGT/TCTGAGGAAATCCA; experiment: inhibition of enzyme-free primer extension (MALDI-ToF kinetics); conditions: 400 mM NaCl, 80 mM MgCl2; 200 mM HEPES, pH 8.9, 20°C; competes with 7.2 mM TMP-OAt; calculated from Kinh
[2] = tested on: hairpin 2a (DNA, hairpin, hexaethylene glycol (HEG) loop linker between 4 and 5) ATGCGCA; experiment: 1H NMR titration; conditions: 400 mM NaCl, 80 mM MgCl2; 200 mM phosphate in D2O, pH 8.9, 20°C, 0.5 mM hairpin
[3] = tested on: template 8cac:primer, no downstream-binding oligonucleotide (DNA, duplex, 3'-amino-2',3'-dideoxynucleoside at primer 3' end) CTGGATTTCCTCAGCACCGTGCG/CGCACGG; experiment: inhibition of enzyme-free primer extension (MALDI-ToF kinetics); conditions: 400 mM NaCl, 80 mM MgCl2; 200 mM HEPES, pH 8.9, 10°C; competes with 7.2 mM TMP-OAt; calculated from Kinh
[4] = tested on: template 8tat:primer, no downstream-binding oligonucleotide (DNA, duplex, 3'-amino-2',3'-dideoxynucleoside at primer 3' end) CTGGATTTCCTCAGTATCGTGCG/CGCACGA; experiment: as above; conditions: 400 mM NaCl, 80 mM MgCl2; 200 mM HEPES, pH 8.9, 20°C; competes with 7.2 mM TMP-OAt; calculated from Kinh
[5] = tested on: hairpin 3a (DNA, hairpin, hexaethylene glycol (HEG) loop linker between 6 and 7) CTATGCGCA; experiment: 1H NMR titration; conditions: 400 mM NaCl, 80 mM MgCl2; 200 mM phosphate in D2O, pH 8.9, 20°C, 0.5 mM hairpin
[6] = tested on: template 8cac:primer + downstream-binding oligonucleotide (DNA, duplex, 3'-amino-2',3'-dideoxynucleoside at primer 3' end) CTGGATTTCCTCAGCACCGTGCG/CGCACGG/GCTGAGGAAATCCA; experiment: inhibition of enzyme-free primer extension (MALDI-ToF kinetics); conditions: 400 mM NaCl, 80 mM MgCl2; 200 mM HEPES, pH 8.9, 20°C; competes with 7.2 mM TMP-OAt; calculated from Kinh
[7] = tested on: hairpin 4a (DNA, hairpin, hexaethylene glycol (HEG) loop linker between 4 and 5) ACAGCTG; experiment: 1H NMR titration; conditions: 400 mM NaCl, 80 mM MgCl2; 200 mM phosphate in D2O, pH 8.9, 20°C, 0.5 mM hairpin
[8] = tested on: template 8tat:primer + downstream-binding oligonucleotide (DNA, duplex, 3'-amino-2',3'-dideoxynucleoside at primer 3' end) CTGGATTTCCTCAGTATCGTGCG/CGCACGA/ACTGAGGAAATCCA; experiment: inhibition of enzyme-free primer extension (MALDI-ToF kinetics); conditions: 400 mM NaCl, 80 mM MgCl2; 200 mM HEPES, pH 8.9, 20°C; competes with 7.2 mM TMP-OAt; calculated from Kinh
[9] = tested on: template 8gag:primer + downstream-binding oligonucleotide (DNA, duplex, 3'-amino-2',3'-dideoxynucleoside at primer 3' end) CTGGATTTCCTCAGGAGCGTGCG/CGCACGC/CCTGAGGAAATCCA; experiment: as above; conditions: 400 mM NaCl, 80 mM MgCl2; 200 mM HEPES, pH 8.9, 20°C; competes with 7.2 mM TMP-OAt; calculated from Kinh
[10] = tested on: hairpin 2g (DNA, hairpin, hexaethylene glycol (HEG) loop linker between 4 and 5) GTGCGCA; experiment: 1H NMR titration; conditions: 400 mM NaCl, 80 mM MgCl2; 200 mM phosphate in D2O, pH 8.9, 20°C, 0.5 mM hairpin
[11] = tested on: template 8aga:primer + downstream-binding oligonucleotide (DNA, duplex, 3'-amino-2',3'-dideoxynucleoside at primer 3' end) CTGGATTTCCTCAGAGACGTGCG/CGCACGT/TCTGAGGAAATCCA; experiment: inhibition of enzyme-free primer extension (MALDI-ToF kinetics); conditions: 400 mM NaCl, 80 mM MgCl2; 200 mM HEPES, pH 8.9, 20°C; competes with 3.6 mM dCMP-OAt; calculated from Kinh
[12] = tested on: template 8tgt:primer, no downstream-binding oligonucleotide (DNA, duplex, 3'-amino-2',3'-dideoxynucleoside at primer 3' end) CTGGATTTCCTCAGTGTCGTGCG/CGCACGA; experiment: as above; conditions: 400 mM NaCl, 80 mM MgCl2; 200 mM HEPES, pH 8.9, 20°C; competes with 3.6 mM dCMP-OAt; calculated from Kinh
[13] = tested on: template 8cgc:primer + downstream-binding oligonucleotide (DNA, duplex, 3'-amino-2',3'-dideoxynucleoside at primer 3' end) CTGGATTTCCTCAGCGCCGTGCG/CGCACGG/GCTGAGGAAATCCA; experiment: as above; conditions: 400 mM NaCl, 80 mM MgCl2; 200 mM HEPES, pH 8.9, 20°C; competes with 3.6 mM dCMP-OAt; calculated from Kinh
[14] = tested on: template 8ggg:primer + downstream-binding oligonucleotide (DNA, duplex, 3'-amino-2',3'-dideoxynucleoside at primer 3' end) CTGGATTTCCTCAGGGGCGTGCG/CGCACGC/CCTGAGGAAATCCA; experiment: as above; conditions: 400 mM NaCl, 80 mM MgCl2; 200 mM HEPES, pH 8.9, 20°C; competes with 3.6 mM dCMP-OAt; calculated from Kinh
[15] = tested on: template 8tgt:primer + downstream-binding oligonucleotide (DNA, duplex, 3'-amino-2',3'-dideoxynucleoside at primer 3' end) CTGGATTTCCTCAGTGTCGTGCG/CGCACGA/ACTGAGGAAATCCA; experiment: as above; conditions: 400 mM NaCl, 80 mM MgCl2; 200 mM HEPES, pH 8.9, 20°C; competes with 3.6 mM dCMP-OAt; calculated from Kinh
[16] = tested on: hairpin 4t (DNA, hairpin, hexaethylene glycol (HEG) loop linker between 4 and 5) TCAGCTG; experiment: 1H NMR titration; conditions: 400 mM NaCl, 80 mM MgCl2, 200 mM phosphate in D2O, pH 8.9, 20°C, 0.5 mM hairpin
[17] = tested on: template 8cgc:primer, no downstream-binding oligonucleotide (DNA, duplex, 3'-amino-2',3'-dideoxynucleoside at primer 3' end) CTGGATTTCCTCAGCGCCGTGCG/CGCACGG; experiment: inhibition of enzyme-free primer extension (MALDI-ToF kinetics); conditions: 400 mM NaCl, 80 mM MgCl2; 200 mM HEPES, pH 8.9, 10°C; competes with 3.6 mM dCMP-OAt; calculated from Kinh
[18] = tested on: RNA hairpin 6c (RNA, hairpin, hexaethylene glycol (HEG) loop linker between 4 and 5) CCAGCUG; experiment: 1H NMR titration; conditions: 400 mM NaCl, 80 mM MgCl2; 200 mM phosphate in D2O, pH 7, 20°C, 2 mM hairpin
[19] = tested on: template 8tct:primer, no downstream-binding oligonucleotide (DNA, duplex, 3'-amino-2',3'-dideoxynucleoside at primer 3' end) CTGGATTTCCTCAGTCTCGTGCG/CGCACGA; experiment: inhibition of enzyme-free primer extension (MALDI-ToF kinetics); conditions: 400 mM NaCl, 80 mM MgCl2; 200 mM HEPES, pH 8.9, 20°C; competes with 3.6 mM dGMP-OAt; calculated from Kinh
[20] = tested on: hairpin 2c (DNA, hairpin, hexaethylene glycol (HEG) loop linker between 4 and 5) CTGCGCA; experiment: 1H NMR titration; conditions: 400 mM NaCl, 80 mM MgCl2; 200 mM phosphate in D2O, pH 8.9, 20°C, 0.5 mM hairpin
[21] = tested on: template 8ccc:primer, no downstream-binding oligonucleotide (DNA, duplex, 3'-amino-2',3'-dideoxynucleoside at primer 3' end) CTGGATTTCCTCAGCCCCGTGCG/CGCACGG; experiment: inhibition of enzyme-free primer extension (MALDI-ToF kinetics); conditions: 400 mM NaCl, 80 mM MgCl2; 200 mM HEPES, pH 8.9, 10°C; competes with 3.6 mM dGMP-OAt; calculated from Kinh
[22] = tested on: template 8gcg:primer + downstream-binding oligonucleotide (DNA, duplex, 3'-amino-2',3'-dideoxynucleoside at primer 3' end) CTGGATTTCCTCAGGCGCGTGCG/CGCACGC/CCTGAGGAAATCCA; experiment: as above; conditions: 400 mM NaCl, 80 mM MgCl2; 200 mM HEPES, pH 8.9, 20°C; competes with 3.6 mM dGMP-OAt; calculated from Kinh
[23] = tested on: hairpin 3c (DNA, hairpin, hexaethylene glycol (HEG) loop linker between 6 and 7) CTCTGCGCA; experiment: 1H NMR titration; conditions: 400 mM NaCl, 80 mM MgCl2; 200 mM phosphate in D2O, pH 8.9, 20°C, 0.5 mM hairpin
[24] = tested on: template 8aca:primer + downstream-binding oligonucleotide (DNA, duplex, 3'-amino-2',3'-dideoxynucleoside at primer 3' end) CTGGATTTCCTCAGACACGTGCG/CGCACGT/TCTGAGGAAATCCA; experiment: inhibition of enzyme-free primer extension (MALDI-ToF kinetics); conditions: 400 mM NaCl, 80 mM MgCl2; 200 mM HEPES, pH 8.9, 20°C; competes with 3.6 mM dGMP-OAt; calculated from Kinh
[25] = tested on: template 8ccc:primer + downstream-binding oligonucleotide (DNA, duplex, 3'-amino-2',3'-dideoxynucleoside at primer 3' end) CTGGATTTCCTCAGCCCCGTGCG/CGCACGG/GCTGAGGAAATCCA; experiment: as above; conditions: 400 mM NaCl, 80 mM MgCl2; 200 mM HEPES, pH 8.9, 20°C; competes with 3.6 mM dGMP-OAt; calculated from Kinh
[26] = tested on: template 8tct:primer + downstream-binding oligonucleotide (DNA, duplex, 3'-amino-2',3'-dideoxynucleoside at primer 3' end) CTGGATTTCCTCAGTCTCGTGCG/CGCACGA/ACTGAGGAAATCCA; experiment: as above; conditions: 400 mM NaCl, 80 mM MgCl2; 200 mM HEPES, pH 8.9, 20°C; competes with 3.6 mM dGMP-OAt; calculated from Kinh
[27] = tested on: template 8ctc:primer, no downstream-binding oligonucleotide (DNA, duplex, 3'-amino-2',3'-dideoxynucleoside at primer 3' end) CTGGATTTCCTCAGCTCCGTGCG/CGCACGG; experiment: as above; conditions: 400 mM NaCl, 80 mM MgCl2; 200 mM HEPES, pH 8.9, 10°C; competes with 3.6 mM dAMP-OAt; calculated from Kinh
[28] = tested on: template 8ctc:primer + downstream-binding oligonucleotide (DNA, duplex, 3'-amino-2',3'-dideoxynucleoside at primer 3' end) CTGGATTTCCTCAGCTCCGTGCG/CGCACGG/GCTGAGGAAATCCA; experiment: as above; conditions: 400 mM NaCl, 80 mM MgCl2; 200 mM HEPES, pH 8.9, 20°C; competes with 3.6 mM dAMP-OAt; calculated from Kinh
[29] = tested on: template 8gtg:primer + downstream-binding oligonucleotide (DNA, duplex, 3'-amino-2',3'-dideoxynucleoside at primer 3' end) CTGGATTTCCTCAGGTGCGTGCG/CGCACGC/CCTGAGGAAATCCA; experiment: as above; conditions: 400 mM NaCl, 80 mM MgCl2; 200 mM HEPES, pH 8.9, 20°C; competes with 3.6 mM dAMP-OAt; calculated from Kinh
[30] = tested on: template 8ata:primer + downstream-binding oligonucleotide (DNA, duplex, 3'-amino-2',3'-dideoxynucleoside at primer 3' end) CTGGATTTCCTCAGATACGTGCG/CGCACGT/TCTGAGGAAATCCA; experiment: as above; conditions: 400 mM NaCl, 80 mM MgCl2; 200 mM HEPES, pH 8.9, 20°C; competes with 3.6 mM dAMP-OAt; calculated from Kinh
[31] = tested on: template 8ttt:primer, no downstream-binding oligonucleotide (DNA, duplex, 3'-amino-2',3'-dideoxynucleoside at primer 3' end) CTGGATTTCCTCAGTTTCGTGCG/CGCACGA; experiment: as above; conditions: 400 mM NaCl, 80 mM MgCl2; 200 mM HEPES, pH 8.9, 20°C; competes with 3.6 mM dAMP-OAt; calculated from Kinh
[32] = tested on: template 8ttt:primer + downstream-binding oligonucleotide (DNA, duplex, 3'-amino-2',3'-dideoxynucleoside at primer 3' end) CTGGATTTCCTCAGTTTCGTGCG/CGCACGA/ACTGAGGAAATCCA; experiment: as above; conditions: 400 mM NaCl, 80 mM MgCl2; 200 mM HEPES, pH 8.9, 20°C; competes with 3.6 mM dAMP-OAt; calculated from Kinh

Structure (SMILES): Nc1ccn([C@H]2C[C@H](O)[C@@H](COP(=O)(O)O)O2)c(=O)n1
Kd [10]: 40 mM
Kd [11]: 15 mM
Kd [12]: 19 mM
Kd [13]: 6 mM
Kd [14]: 18 mM
Kd [15]: 5 mM
Kd ([16]; no saturation up to 1 M dCMP): > ≥2000 mM
Kd [17]: 30 mM

Structure (SMILES): Nc1nc2c(ncn2[C@@H]2O[C@H](COP(=O)(O)O)[C@@H](O)[C@H]2O)c(=O)[nH]1
Kd [18]: 14 mM

Structure (SMILES): Nc1ncnc2c1ncn2[C@H]1C[C@H](O)[C@@H](COP(=O)(O)O)O1
Kd [27]: 7 mM
Kd [28]: 7 mM
Kd [29]: 5 mM
Kd [30]: 5 mM
Kd [16]: 38 mM
Kd [31]: 17 mM
Kd [32]: 5 mM

Other lines, results leading:

Kd [1]: 77 mM
Kd [2]: 261 ± 47 mM
Kd [3]: 144 mM
Kd [4]: 200 mM
Kd [5]: 284 ± 44 mM
Kd [6]: 113 mM
Kd [7]: 241 ± 12 mM
Kd [8]: 59 mM
Kd [9]: 83 mM
Structure (SMILES): Cc1cn([C@H]2C[C@H](O)[C@@H](COP(=O)(O)O)O2)c(=O)[nH]c1=O

Kd [19]: 15 mM
Kd [20]: 9.9 ± 0.9 mM
Kd [21]: 5 mM
Kd [22]: 10 mM
Kd [23]: 16 mM
Kd [24]: 5 mM
Kd [16]: 100 mM
Kd [25]: 7 mM
Kd [26]: 2 mM
Structure (SMILES): Nc1nc2c(ncn2[C@H]2C[C@H](O)[C@@H](COP(=O)(O)O)O2)c(=O)[nH]1
